Assay [1] addresses T1, Polyadenylate-binding protein 1 (Homo sapiens, UniProt P11940). In words: MLLE binding blockers, Cy5 peptide tracer – biochemical, fluorescence polarization, Cy5-PAM2 peptide, secondary, miRNA deadenylation inhibitor project, dose response (AID 602260). The assay is classed as functional. The note with it: read-out: IC50_Mean.
The target in assay [2] is T1, Polyadenylate-binding protein 1. The experiment in a line: MLLE domain peptide-binding blockers, IC50 – biochemical, fluorescence polarization, FITC-PAM2 peptide, dose response (AID 602259). Format: functional. To be noted: read-out: IC50_Mean.
Assay [3] addresses T2, Heat shock factor protein 1 (Mus musculus, UniProt P38532).
T2 sequence (P38532 whole entry): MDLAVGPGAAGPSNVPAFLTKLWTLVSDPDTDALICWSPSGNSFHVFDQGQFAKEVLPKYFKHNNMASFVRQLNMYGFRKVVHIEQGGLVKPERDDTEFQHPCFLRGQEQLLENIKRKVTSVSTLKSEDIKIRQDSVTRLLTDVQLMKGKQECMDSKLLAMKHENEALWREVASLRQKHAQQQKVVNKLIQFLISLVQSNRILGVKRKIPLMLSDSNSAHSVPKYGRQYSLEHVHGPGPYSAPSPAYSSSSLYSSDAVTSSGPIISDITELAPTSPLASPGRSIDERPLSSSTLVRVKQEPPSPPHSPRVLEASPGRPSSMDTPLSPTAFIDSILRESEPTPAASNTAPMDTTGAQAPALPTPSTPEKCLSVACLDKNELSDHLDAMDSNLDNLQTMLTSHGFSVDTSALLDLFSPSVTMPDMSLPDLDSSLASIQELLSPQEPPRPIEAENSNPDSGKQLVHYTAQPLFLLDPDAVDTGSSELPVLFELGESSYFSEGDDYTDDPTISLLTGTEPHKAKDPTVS
The experiment in a line: enhancement of HSF1-driven luciferase signal – cell-based, NIH3T3, luminescence, dose retest, confirmation (AID 435004).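 Also: stress induced by proteasome inhibitor MG132 added 30 min after compound; luciferase reporter driven by HSF1 response element in NIH3T3 cells; actives raise luminescence as potentiators of the MG132 stress response.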 The assay is classed as functional.

Assay [4] in a line: Luminescence Cell-Based Dose Retest to Confirm Inhibitors of Cancer Stem Cells. [Related pubchem assays (depositor defined):AID2717, AID2721]. The note with it: Homo sapiens. The assay is classed as functional.
In a further assay the test system is INS1. In words: INS-1E survival protection against cytokine death – cell-based, luminescence, retest, dose response (AID 449756).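 Also: cell death triggered by IL-1 beta plus TNF-alpha plus IFN-gamma mixture; protective hits raise ATP signal compared with cytokine alone wells.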 The assay is classed as functional. To be noted: Rattus norvegicus.
Assay [5] is described as follows: viability of PTEN-deleted HCT116 cells – cell-based, HCT116 PTEN knockout, dose response (AID 1047).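 Also: HCT116 colon tumor cells with PTEN knocked out; cells exposed to compound for 60 hours before readout; potency for loss of cell viability measured by luminescence.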 Format: functional.
A short description of assay [6]: viability of HCT116 lacking mutant beta-catenin – cell-based, human colon tumor, dose response (AID 1045).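 Also: HCT116 colon tumor cells with beta catenin knocked out; cells exposed to compound for 60 hours.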 Format: functional.
Assay [7] concerns the target T3, Carboxy-terminal domain RNA polymerase II polypeptide A small phosphatase 1 (Homo sapiens, UniProt Q9GZU7).
T3 sequence (Q9GZU7 whole entry): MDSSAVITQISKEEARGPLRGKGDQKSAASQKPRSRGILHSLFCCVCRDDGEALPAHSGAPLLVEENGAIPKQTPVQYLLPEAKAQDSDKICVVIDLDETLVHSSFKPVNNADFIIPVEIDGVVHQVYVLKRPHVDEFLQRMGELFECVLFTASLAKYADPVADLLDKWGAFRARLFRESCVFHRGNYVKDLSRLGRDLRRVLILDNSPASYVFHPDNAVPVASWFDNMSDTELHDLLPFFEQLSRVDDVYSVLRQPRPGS
The experiment in a line: CTDSP1 inhibitors, concentration-response, biochemical, absorbance readout, ultra-high-throughput screen actives (AID 540297). Format: functional.

Assay [8] in a line: Trypanosoma cruzi growth suppression in host cells – NIH3T3 host cells, beta-gal luminescence, confirmation (AID 2044).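 Also: intracellular parasites grown in NIH/3T3 mouse fibroblasts as host cells; luminescent beta-galactosidase reporter signal from transgenic T. cruzi replicating inside host cells; inhibitors lower the luminescence signal.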 The assay is classed as functional, cell-based.
Assay [9] is described as follows: NIH3T3 cell viability loss – ATP luminescence, mouse fibroblasts, counter-screen, dose response (AID 2010).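 Also: cells exposed to compound for about 90 hours before reading.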 Format: functional, cell-based.
The test system of another assay is H9c2. The experiment in a line: cells. The note with it: Rattus norvegicus, H9c2, Myocardium. Format: functional, cell-based.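 Also: confirmatory concentration-response retest of ultra-high-throughput screening hits for modulation of myocardial damage; cell death induced by hydrogen peroxide oxidative stress; compound pretreatment for 60 min then peroxide exposure for 2 h; potency is for protecting the cells against peroxide damage rather than for killing them.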
The target in the next assay is Genome polyprotein (dengue virus type 2, UniProt P29990). The experiment in a line: flavivirus cap methylation enzyme inhibition – biochemical, confirmation dose response, primary screen (AID 588689). Format: functional.
Chain of Genome polyprotein (P29990 2492-3391 limits assumed): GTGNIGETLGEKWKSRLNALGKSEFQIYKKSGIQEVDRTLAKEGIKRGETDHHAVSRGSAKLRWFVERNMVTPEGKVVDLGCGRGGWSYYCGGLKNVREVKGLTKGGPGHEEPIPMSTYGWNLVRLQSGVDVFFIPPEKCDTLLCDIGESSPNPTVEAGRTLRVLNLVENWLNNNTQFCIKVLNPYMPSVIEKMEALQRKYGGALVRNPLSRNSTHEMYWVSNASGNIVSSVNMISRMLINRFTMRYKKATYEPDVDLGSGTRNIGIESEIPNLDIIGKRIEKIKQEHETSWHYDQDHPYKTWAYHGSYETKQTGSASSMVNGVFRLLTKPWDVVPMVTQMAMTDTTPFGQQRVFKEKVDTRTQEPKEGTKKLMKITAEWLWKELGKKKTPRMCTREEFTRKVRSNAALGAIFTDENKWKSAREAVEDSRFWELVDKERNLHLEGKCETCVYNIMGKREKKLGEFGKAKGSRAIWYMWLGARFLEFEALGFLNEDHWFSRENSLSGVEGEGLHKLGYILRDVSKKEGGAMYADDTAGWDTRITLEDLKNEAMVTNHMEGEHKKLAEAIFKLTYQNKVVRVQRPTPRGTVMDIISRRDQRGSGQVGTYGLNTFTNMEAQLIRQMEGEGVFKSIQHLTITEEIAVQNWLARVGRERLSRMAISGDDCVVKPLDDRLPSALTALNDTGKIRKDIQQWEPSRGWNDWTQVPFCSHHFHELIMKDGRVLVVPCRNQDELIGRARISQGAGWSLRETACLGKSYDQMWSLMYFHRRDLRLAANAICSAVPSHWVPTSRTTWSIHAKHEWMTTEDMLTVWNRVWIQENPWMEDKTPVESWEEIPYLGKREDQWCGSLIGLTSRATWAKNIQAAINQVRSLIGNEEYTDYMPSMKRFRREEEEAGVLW
The target of assay [10] is T2, Heat shock factor protein 1. The experiment in a line: decrease of HSF1-responsive luciferase luminescence – cell-based, NIH3T3, dose retest, confirmation (AID 2382).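 Also: NIH3T3 fibroblasts with HSF1-driven luciferase reporter stressed by proteasome inhibitor MG132; luminescence from HSF1-driven luciferase expression after 8 hours of MG132 stress.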 Format: functional.
The target of assay [11] is FAD-linked sulfhydryl oxidase ALR (Homo sapiens, UniProt P55789). In words: ALR-catalysed DTT oxidation blockers – biochemical, H2O2 detection, luminescence, cherry-pick, dose response (AID 493248).
Chain of FAD-linked sulfhydryl oxidase ALR (P55789 whole entry): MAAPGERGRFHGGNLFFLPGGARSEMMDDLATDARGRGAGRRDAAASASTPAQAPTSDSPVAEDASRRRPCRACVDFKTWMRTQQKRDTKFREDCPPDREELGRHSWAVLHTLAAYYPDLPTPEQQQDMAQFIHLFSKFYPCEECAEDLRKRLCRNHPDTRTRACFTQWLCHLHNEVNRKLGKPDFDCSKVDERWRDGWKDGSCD
The target in a further assay is T4, Protein RecA (Mycobacterium tuberculosis, UniProt P9WHJ3).
T4 sequence (P9WHJ3 whole entry): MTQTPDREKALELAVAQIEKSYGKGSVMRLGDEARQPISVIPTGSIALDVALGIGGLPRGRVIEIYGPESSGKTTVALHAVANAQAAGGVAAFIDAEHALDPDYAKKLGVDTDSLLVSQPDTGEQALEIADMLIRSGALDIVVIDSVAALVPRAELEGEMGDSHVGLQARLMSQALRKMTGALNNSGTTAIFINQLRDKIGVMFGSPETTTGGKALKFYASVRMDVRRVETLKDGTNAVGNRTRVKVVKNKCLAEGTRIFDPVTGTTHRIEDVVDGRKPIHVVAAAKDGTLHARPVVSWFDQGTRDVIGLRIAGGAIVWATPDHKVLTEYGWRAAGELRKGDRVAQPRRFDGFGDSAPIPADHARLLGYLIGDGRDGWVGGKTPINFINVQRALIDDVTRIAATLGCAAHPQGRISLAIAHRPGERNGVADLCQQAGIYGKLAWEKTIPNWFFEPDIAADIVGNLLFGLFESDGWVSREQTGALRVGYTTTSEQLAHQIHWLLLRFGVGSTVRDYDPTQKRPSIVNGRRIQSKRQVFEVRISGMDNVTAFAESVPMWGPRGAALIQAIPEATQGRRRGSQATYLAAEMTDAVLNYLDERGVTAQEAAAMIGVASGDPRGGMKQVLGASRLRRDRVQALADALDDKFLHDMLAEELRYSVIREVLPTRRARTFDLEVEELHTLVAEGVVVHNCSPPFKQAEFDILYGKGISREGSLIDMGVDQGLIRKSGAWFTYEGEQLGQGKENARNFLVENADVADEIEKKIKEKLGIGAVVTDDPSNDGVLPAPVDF
The experiment in a line: Fluorescence Cell-Free Homogeneous Dose Retest to Identify Inhibitors of RecA-Intein Splicing Activity. [Related pubchem assays (depositor defined):AID2097, AID2223, AID489010, AID492950]. Format: functional.

Assay [12] can be described thus: P. falciparum Dd2 growth inhibitors, dose response, SYBR Green, cherry-picked samples (AID 1159567). The assay is classed as functional, cell-based.

Molecules are shown by their SMILES. Activity calls are given as the source filed them.

T1 sequence (P11940 whole entry, the tested form may be a part): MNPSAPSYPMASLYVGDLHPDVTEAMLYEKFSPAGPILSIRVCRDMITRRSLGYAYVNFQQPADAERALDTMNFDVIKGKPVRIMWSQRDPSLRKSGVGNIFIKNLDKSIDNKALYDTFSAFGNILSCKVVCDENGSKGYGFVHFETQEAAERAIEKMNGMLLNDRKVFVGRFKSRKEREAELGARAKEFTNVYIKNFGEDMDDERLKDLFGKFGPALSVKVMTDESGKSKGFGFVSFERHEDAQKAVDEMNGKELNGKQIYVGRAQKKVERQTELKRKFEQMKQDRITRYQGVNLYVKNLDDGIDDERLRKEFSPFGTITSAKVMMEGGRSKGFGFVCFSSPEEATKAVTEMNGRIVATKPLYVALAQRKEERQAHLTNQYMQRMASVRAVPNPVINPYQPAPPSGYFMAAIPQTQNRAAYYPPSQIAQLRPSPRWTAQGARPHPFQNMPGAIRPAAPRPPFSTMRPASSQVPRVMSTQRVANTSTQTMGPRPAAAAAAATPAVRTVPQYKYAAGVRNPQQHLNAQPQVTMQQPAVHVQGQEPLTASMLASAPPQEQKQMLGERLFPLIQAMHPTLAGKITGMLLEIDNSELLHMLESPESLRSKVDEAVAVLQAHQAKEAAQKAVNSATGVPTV

`CC(=O)c1c(S)nc(-c2ccccc2)nc1NC(=O)c1ccccc1`: the IC50 in [1] and in [2] was > 66 µM (inactive) throughout. `NC(=O)c1nsc(C(=O)N(c2ccccc2)C(C(=O)NCC2CCCO2)c2cccs2)c1N` (stereo not given): the EC50 in [3] was > 260 µM (inactive). On the same count and under the same terms, next, `COc1ccc(/C=C/C(=O)C23CC4CC(CC(C4)C2)C3)cc1CN1CCOCC1`: 46 µM (active). In the case of `CCN(CC)CCNc1ncnc2c1sc1nc(N3CCOCC3)c3c(c12)CC(C)(C)SC3`, the AC50 was 8.39 µM (active) in assay [4] and 12.5 µM (active) in the assay on INS1. Moreover, the results for the EC50 in assay [5] and in [6] were 8.46 µM (active) and 7.85 µM (active), respectively. Take `O=C(CN1C(=O)NC2(CCCC2)C1=O)OCc1cc(=O)n2cc(Br)ccc2n1`: the IC50 in [7] is 6.81 µM (active). With `CCOC(=O)c1c(C)c(C(=O)Nc2ccc3c(c2)OCO3)c(C)n1C`, the EC50 in [3] is > 260 µM (inactive). Consider `CC(NC(=O)c1cccs1)C(S)c1ccccc1` (stereo not given), for which the IC50 in [1] and in assay [2] was > 66 µM (inactive) throughout. As for `CCNc1nc(NCC)n2c(SCC(=O)Nc3ccc(F)cc3)nnc2n1`, the IC50 in [7] is 10.3 µM (active). For `COCCCNc1nc2ccccc2nc1NS(=O)(=O)c1cccc(Cl)c1`, the IC50 in assay [1] and in [2] was > 66 µM (inactive) throughout. With `O=C(O)Cn1c2ccccc2c2nnc(S)nc21`, the IC50 in assay [1] and in assay [2] was > 66 µM (inactive) each time.

As to `CSc1ccc(C2C(C#N)=C(N)N(c3ccccc3)C3=C2C(=O)CCC3)cc1` (stereo not given), in [3], the half-maximal effective concentration (EC50) is 27 µM (active). As for `Cc1cc(=O)oc2cc(NC(=O)c3cccc(F)c3)ccc12`, in assay [7], the IC50 was 4.51 µM (active). On to `O=C(c1ccco1)N1CCN(C(=O)c2cc(-c3ccncc3)nc3ccc(Br)cc23)CC1`, for which the EC50 is 3.83 µM (active) in assay [8] and > 60 µM (not active) in assay [9]. The IC50 in the assay on H9c2 was 7.04 µM (active). Turning to `CCOC(=O)C(C(=O)OCC)C(Nc1ccc(Br)cc1)c1ccccc1` (stereo not given), the AC50 in assay [4] was 8.85 µM (active). For the same molecule, the EC50 was 276 µM (active) in assay [5] and 15.2 µM (active) in assay [3].

In the case of `C#CCOc1ccccc1/C=C1/C(=O)ON=C1C`, the IC50 at Genome polyprotein is > 100 µM (active). In the case of `CC(C)(C)C(=O)Nc1cccc(-c2nnc(-c3cccc(NC(=O)C(C)(C)C)c3)o2)c1`, the IC50 with H9c2 is > 79 µM (inactive).

For `O=C(CCc1nc(O)c2ccccc2n1)NCc1ccco1`, the EC50 in assay [10] is listed as > 195 µM (not active). In addition, in the assay with H9c2, the IC50 was > 79 µM (inactive). For `CS(=O)(=O)N(CC(=O)N1CCN(Cc2ccc3c(c2)OCO3)CC1)Cc1ccc(Cl)cc1`, the concentration for a half-maximal effect (EC50) in assay [5] was 497 µM (active); in [6], 77.1 µM (active). As for `CCC(Sc1nnc2c3ccccc3n(CC)c2n1)C(=O)Nc1sc2c(c1C#N)CCCC2` (stereo not given), the EC50 in [5] is 11.7 µM (active); in assay [6], 10.4 µM (active).

On to `COc1ccc(-c2nc3c(c4nnc(SC(C)C(=O)Nc5ccccc5)n24)COC(C)(C)C3)cc1` (stereo not given), for which the 50% effective concentration (EC50) in assay [5] is 9.44 µM (active); in assay [6] it was 8.77 µM (active).

On to `Cc1ccc(NC(=O)CSC2=NCCN2)cc1`, for which the IC50 in assay [1] and in assay [2] was > 66 µM (inactive) each time.

As to `C=CCNCCOCCSc1ccc(Cl)cc1`, the EC50 in assay [3] is > 260 µM (inactive).

As to `O=C1CC(NNc2ccccc2)C(=O)N1c1ccccc1` (stereo not given), in assay [11], the AC50 was 0.382 µM (active). The EC50 in [3] was > 260 µM (inactive).

`COCC(C)NC(=O)/C(=C/c1ccccc1)c1ccccc1` (stereo not given): in [3], the EC50 is > 260 µM (inactive).

As to `NCCc1nnc(SCc2ccc(F)cc2)o1`, the EC50 in assay [3] was > 260 µM (inactive). Take `CCCCCn1c(N)c(-c2nc3ccccc3s2)c2c([N+](=O)[O-])nn(C)c(=O)c21`: the concentration for a half-maximal effect (EC50) in assay [8] is 2.14 µM (active); in [9], > 60 µM (not active); in [5], 10.1 µM (active); in assay [6] it was 12.5 µM (active). As to `Cc1sc(NC(=O)CCl)c(C(=O)c2ccccc2)c1C`, the IC50 in assay [1] and in assay [2] was > 66 µM (inactive) each time. The EC50 on Protein RecA was 3.55 µM (active).

With `c1ccc(SCCOCCN2CCOCC2)cc1`, the EC50 in [3] is > 260 µM (inactive). Still for that read-out and setting: next, `CC1CN(C(=O)CS(=O)(=O)Cc2ccccc2)CC(C)O1` (stereo not given): > 260 µM (inactive). Consider `Cc1cc(O)c2c(c1)C(=O)[C@@]13Oc4c5c(c(O)c6c(O)cc(C)cc46)C(=O)C[C@H](O)[C@H]5[C@@H]1[C@@H](O)CC(=O)C3=C2O`, for which the IC50 on Genome polyprotein is 16.7 µM (active).

Consider `O=C(CCc1nc(O)c2ccccc2n1)N1CCN(S(=O)(=O)c2ccc(F)cc2)CC1`, for which the IC50 in the assay with H9c2 was > 79 µM (inactive). On to `O=C1CSC(=S)N1/N=C/c1cccnc1`, for which the IC50 in assay [1] and in [2] was > 66 µM (inactive) in each case. With `Cc1[nH]n(C(N)=S)c(=O)c1/N=N/c1ccc(S(=O)(=O)N2CCCC2)cc1`, the IC50 in assay [1] and in [2] was > 66 µM (inactive) throughout. On to `CS(=O)(=O)N(CC(=O)N/N=C/c1cc([N+](=O)[O-])ccc1Cl)c1ccccc1`, for which the concentration for a half-maximal effect (EC50) was 26.4 µM (active) in assay [5] and 24.4 µM (active) in [6]. Turning to `COC(=O)c1ccc(/C=N/NC(=O)c2cccc(F)c2)cc1`, in [7], the IC50 was 11.4 µM (active). Turning to `COc1ccc(CN(C)C[C@@H]2Oc3c(NC(=O)c4ccc(-c5nccs5)cc4)cccc3C(=O)N([C@@H](C)CO)C[C@H]2C)cc1`, the AC50 in [12] was 3.25 µM (active). On the same count and under the same terms, in the case of `COc1cccc(-c2ccc3c(c2)[C@@H]2[C@@H](CCN2C(=O)C2CCCC2)[C@H](CO)N3)c1` it was 4.88 µM (active); in that of `CO[C@@H]1CN(C)C(=O)c2ccc(NC(=O)C3CC3)cc2OC[C@@H](C)N(Cc2ccccc2)C[C@H]1C`, 3.33 µM (active); in that of `COc1cccc(NC(=O)N2[C@@H](CO)[C@@H](c3ccccc3)[C@@H]2CNC(C)C)c1`, 5.06 µM (active). Same read-out and setting: in the case of `COCC(=O)N1CCC2(CC1)CN(Cc1cccc(OC)c1)[C@@H](CO)c1[nH]c3cc(OC)ccc3c12` it was 7.42 µM (active).

These data come from ChEMBL document CHEMBL1201862, “PubChem BioAssay data set” (2004).
